Experiments:
hippocampal neurons = assay: Expression of cell proliferating markers Ki-67 and cdc2 in hippocampal neurons; format: cell-based, rat
Source text: Expression of cell cycle proteins have been successfully used to evaluate cellular proliferation. One such protein is the nuclear proliferation protein, Ki-67, which is expressed during the G1, S, G2, and M phases of the cell cycle, but is not expressed during the Go (resting) phase. Because Ki-67 antigen has a short half-life, it can be used as a marker of actively proliferating cells. Another cell cycle protein is cell division control protein 2 (cdc2) which is a cyclin dependent kinase (also called CDK1) which plays a crucial role in the G1/S and G2/M phase. If THP induces neuronal proliferation, cell proliferation markers should be elevated.
Hippocampal neurons were treated with THP at a concentration of 250 nM for 72 hours and immunostained with antibodies for the nuclear proliferation marker, ki-67 antigen, which appears yellow. […] The cell cycle protein cdc2 is also observed in a dose dependent fashion (see FIG. 4).
For this experiment, neurons were collected following 24 hrs of THP exposure. Forty μg protein of the total cell lysate was loaded and separated by 12% SDS-gel using antibody (Ahcom) specifically against cdc2- and analyzed using Un-Scan-It image software (Ilk Scientific Corp.).

3×TgAD and non-Tg mice = assay: Trace eyeblink conditioning, learning and memory; format: in vivo, mouse; details: for memory performance nine days after learning trial / learning performance: 3 months; for learning performance: 10 mg/kg s.c. once
Protocol: Under deep anesthesia by intraperitoneal (i.p.) injection with ketamine (100 mg/kg i.p.) and xylazine (25 mg/kg i.p.), a 4 pin head stage (DIGI-KEY) was cemented to the skull of 3 month old male mouse with dental acrylic. The connector has four Teflon-coated stainless steel wires and one bare stainless steel wire (0.003″ bare and 0.0055″ coated, A-M Systems, Inc.). The bare wire was attached via a gold pin (Time Electronics) to the head stage. Coated wires were implanted s.c. in the orbicularis oculi dorsal to the left upper eyelid to record the EMG and s.c. periorbitally to deliver the shock US (3). All animals were then placed on a warm isothermal pad after surgery to recovery for 30 min. After surgery, mice were individually housed, provided with ad libitum access to food and water, and maintained on a 12 hr light/dark cycle.
After one week of acclimation to the colony room, mice with no obvious adverse responses to surgery were randomly assigned to an experimental condition. Mice were injected subcutaneously (s.c.) with 10 mg/kg THP or vehicle followed one hour later with an IP injection of BrdU (100 mg/kg). Following injection of test compound, mice were returned to their home cage for 7 days prior to onset of behavioral testing.
During the first day of training, mice were placed within Plexiglas cylinders in a sound-attenuated chamber and were habituated to the test environment for one session consisting of 30 stimulus-free trials at 30-60 sec inter-trial intervals while spontaneous eye-blink activity was recorded using electromyographic (EMG) activity recorded from the obicularis oculi dorsal to the orbit during each trial. EMG activity was rectified, and integrated using custom designed computational Labview routines.
Following habituation to the test environment mice underwent a learning phase and were trained for five days. Mice were trained by pairing delivery of a tone (CS, 250 msec, 2 kHz, 85 dB) as the conditioned stimulus followed by a 250 msec period of no stimuli, followed by the periobital shock as the unconditioned stimulus (US, 100 msec). Mice received two blocks of 30 trials per day (30-60-sec inter-trial intervals, 3-4-h inter-block intervals). This trace eye-blink conditioning paradigm is subthreshold for inducing neurogenesis. The unpaired group received random tone at the same magnitude as the paired conditioning and shock with 15-30 sec as inter-trial intervals and a total of 60 trials for one session per day. Shock intensity was adjusted daily for each mouse to elicit a head-movement response. Following the learning phase, mice were returned to their home cage for eight days followed on the ninth day by a single session to assess memory of the conditioned response. The percentage of CR was computed as the ratio of the number of CRs to the total number of valid trials. Animals were perfused at the end of the memory trial day.
To determine if there was a functional consequence of THP-induced neurogenesis, the impact of THP on both the learning and memory of a behavioral task shown to be dependent upon the generation of new neurons in the dentate gyrus, delayed trace conditioning was assessed. 3×TgAD and non-Tg background mice were prepared for behavioral testing and received a single s.c. injection of THP (10 mg/kg once) or vehicle 7 days prior to start of the learning trial. After injection, mice were housed for 7 days before the training process started. The rationale for the 7 day interim between exposure to THP and the start of the behavioral experiment was to allow time for the proliferation, migration and integration of newly generated neurons into the dentate gyrus.
Following the 7 day interim period, the behavioral testing commenced with a 5 day (2×30 trials/day) training learning phase to assess rate and magnitude learning performance. After the learning trial, mice were returned to their home cage for another 9 day period and subsequently tested for memory of the learned association. […]

CNPase = CNPase expression (myelination marker); format: in vivo, mouse
Protocol: Further studies were conducted using a dosing regime of once a week for six months administered subcutaneously. Three and six months old 3×Tg-AD and age-matched non-Tg mice were chosen for the experiments, since AD pathology (Aβ) starts development at 3-month and abundant accumulation at 6-months. Allopregnanolone was subcutaneously (s.c.) administrated with 10 mg/kg once per week for 6 months. For neurogenesis and neurosurvival study, BrdU, IdU and CIdU were intraperitoneal (i.p.) injected at the first 5 days, mid 5 days and 5 days before sacrifice during 6-month treatment. After 6 months of allopregnanolone treatment, mice, at 9- and 12-month old, were sacrificed.
Immunofluorescent staining shown the immunoreactivity increased in CA1, entorhinal cortex, and primary somatosensory cortex.

For `CC(=O)[C@H]1CC[C@H]2[C@@H]3CC[C@H]4C[C@H](O)CC[C@]4(C)[C@H]3CC[C@]12C` [THP, 3α-hydroxy-5α-pregnan-20-one], the “expression of nuclear proliferation marker Ki-67” value (hippocampal neurons; 250 nM, 72 hours, immunostaining) was “induces the expression of the nuclear proliferation marker Ki-67”, the “expression of cdc2” value (hippocampal neurons; 250 or 500 nM, 24 hrs, Western blot) was “increases expression of cell division control protein 2 (cdc2)” and the “memory performance nine days after learning trial” value (3×TgAD and non-Tg mice; 3×TgAD mice) was “significant increase in memory”. For the same molecule, the learning performance (3×TgAD and non-Tg mice; 3×TgAD mice) was “significantly increased the learning performance”, the “learning level (conditioned response) at the end of training” value (3×TgAD and non-Tg mice; 3×TgAD mice, 6-months-old, 10 mg/kg) was 39.2±9.2% and the “memory test 9 days after acquisition phase” value (3×TgAD and non-Tg mice; 3×TgAD mice, 6 months) was “significantly increased the retention of the conditioned response rate”. The “final level of learning” value (3×TgAD and non-Tg mice; 3×TgAD mice, 9-months-old) was 23.6±4.0%, the “memory performance after 9 days vs vehicle” value (3×TgAD and non-Tg mice; 3×TgAD mice, 9-months-old) was “significantly better memory performance” and the “final level of learning” value (3×TgAD and non-Tg mice; 3×TgAD mice, 12-months-old) was 14.9±3.6%. The “memory deficit vs vehicle-treated non-Tg mice” value (3×TgAD and non-Tg mice; 3×TgAD mice, 12-months-old) was “not reversed”, the “learning rate and final level of learning” value (3×TgAD and non-Tg mice; 3×TgAD mice, 15-month-old) was “did not affect the learning rate nor the final levels of learning” and the “% CR” value (3×TgAD and non-Tg mice; 3×TgAD mice, memory phase) was 53.96%. For the same molecule, the “memory performance nine days after learning trial” value (3×TgAD and non-Tg mice; non-Tg mice) was “did not significantly augment the memory performance”, the learning performance (3×TgAD and non-Tg mice; non-Tg mice) was “did not augment the learning performance” and the memory retention (3×TgAD and non-Tg mice; non-Tg mice, 6 months) was “no effect”. For the same molecule, the “maximal conditioned response rate” value (3×TgAD and non-Tg mice; non-Tg mice, 6 months, 10 mg/kg) was 30.4±7.7%, the “final level of learning” value (3×TgAD and non-Tg mice; non-Tg mice, 9-months-old) was 20.6±4.1% and the memory test performance (3×TgAD and non-Tg mice; non-Tg mice, 9-months-old) was “no significant effect”. The “final level of learning” value (3×TgAD and non-Tg mice; non-Tg mice, 12-months-old) was 25.4±6%, the memory performance (3×TgAD and non-Tg mice; non-Tg mice, 12-months-old) was “modest improved memory performance which was not significantly better than vehicle-treated group” and the “maximum level of learning” value (3×TgAD and non-Tg mice; non-Tg mice, 15-months-old) was 29.6±5.5%. The “CNPase expression, Western blot” value (CNPase; 9-month nonTg mice and 3×TgAD mice) was “increased CNPase expression”, the “CNPase expression, Western blot” value (CNPase; 12-month 3×TgAD mice) was “trended towards an increase” and the “CNPase expression, Western blot” value (CNPase; 12-month non-Tg mice) was “no significant difference”.

Source: patent US11207331B2, “Agents, compositions and methods for enhancing neurological function” (University of Southern California, priority 2007, dated 2021)
